# Source: patent US20080207671A1, “Diagnosis and treatment of diseases arising from defects in the tuberous sclerosis pathway” (The Regents of the University of Michigan, priority 2006, published 2008)
# Entries after “also recorded” stand apart in the source; their conditions may differ.
# Assays:
# db/db mice [1] = test: Diabetic nephropathy in db/db mice: glomerular morphometry, gene expression, urinary albumin; format: in vivo; details: rapamycin for 8 weeks from 16 weeks of age
# Method: (§1) Mice were randomly divided into four groups as follows: nondiabetic db/+; nondiabetic db/+ treated with Rapamycin; diabetic db/db: and diabetic db/db treated with Rapamycin (2.0 mg/kg body weight, 3 days/week). Rapamycin was injected intraperitoneally (i.p.) from the age of 8 weeks to 25 weeks or 16 weeks to 25 weeks. Blood glucose levels and body weight were determined weekly in all animals. Mice were housed in a 12 hr light/dark cycle and temperature-controlled environment. Animal care and all experiments were conducted in accordance with the institutional guidelines of the Kyushu University Graduate School of Medicine.
# Seventeen weeks after treatment with rapamycin (25 week of age), mice were deeply anesthetized, after perfusion with ice-cold PBS, the kidneys were perfused with 4% paraformaldehyde. […] To quantify mesangial expansion, sections were coded and read. […] The extent of increase in mesangial matrix (defined as mesangial area) was determined by the presence of PAS-positive and nuclei-free area in the mesangium; the glomerular surface area has been measured using standard measurements of glomerular tuft areas using a the computer program of Axiovision Auto Mesure.
# At age 25 weeks, kidney was isolated from db/db and db/+ mice (n=10 for each group), and total RNA was purified. […] Data were normalized to GAPDH and analyzed by the comparative threshold cycle method. […]
# db/db mice [2] = format: in vivo; details: 16 weeks treatment
# Method: m+/+ Lepr db (db/+) mice were obtained from The Charles River Japan and mated, +Lepr db/+ Lepr db mice (db/db) mice were generated.
# as §1, with “Animal care and all experiments were conducted in accordance with the institutional guidelines of the Kyushu University Graduate School of Medicine.” left out
# At age 25 weeks, kidney was isolated from db/db and db/+ mice (n=10 for each group), and total RNA was purified. The expression of fibronectin and α3-type IV collagen mRNA by real-time reverse transcriptase-polymerase chain reaction (RT-PCR), which was performed in an ABI 7700 sequence detector (Applied Biosystems), was quantified. […] For quantitative RT-PCR of UCP-1, BAT (brown adipose tissue) was isolated from 2 weeks rapamycin treated or untreated mice, primers used were described previously (see, e.g., Um S H, et al., Nature 431, 200-205, 2004; herein incorporated by reference in its entirety). Data were normalized to GAPDH and analyzed by the comparative threshold cycle method. […]
# Data were expressed as the means±SEM. […]
# S6K-dC104 = test: Phosphorylation and kinase activity of rapamycin-resistant S6K mutants (S6K-dC104, S6K-dNC); format: cell-based
# Method: (§2) HEK293 cells were seeded and maintained in Dulbecco's modified Eagle's medium (DMEM) containing 10% fetal bovine serum (FBS). Transfection was performed in serum-free conditions using Lipofectamine reagent (Invitrogen, Carlsbad, Calif.) in accordance with the manufacturer's instructions. In brief, 4 h after transfection, the cells were recovered in DMEM containing 10% FBS for 16 h and then starved for 16-24 h. Cells were then lysed in lysis buffer (10 mM Tris-HCl at pH 7.5, 100 mM sodium chloride, 1% NP-40, 1% Triton X-100, 50 mM sodium fluoride, 2 mM EDTA, 1 mM phenyl methylsulphonyl fluoride, 10 μg ml^−1 leupeptin and 10 μg ml^−1 aprotinine) and immunoprecipitated with the indicated antibodies and protein G-Sepharose beads. Immunocomplexes were analyzed by SDS-polyacrylamide gel electrophoresis (PAGE).
# For the S6K assays, HEK293 cells grown in six-well plates were transfected with 10-20 ng HA-S6K constructs, with or without various plasmids, as indicated in the figures. HA-S6K was immunoprecipitated from serum-starved cells with an anti-HA antibody and analyzed by in vitro kinase assay using purified GST-S6 as a substrate (Pearson et al., EMBO J. 14:5279-5287 (1995)).
# EEF4 (TSC2+/+) cells = test: S6K and 4EBP1 phosphorylation in EEF4 (TSC2+/+) fibroblasts; format: cell-based
# [3] = system: phosphorylation of S6K, S6, 4EBP1 and mTOR; test: Immunoblot of S6K, S6, 4EBP1 and mTOR phosphorylation in HEK293 cells under energy depletion; format: cell-based, human; details: for phosphorylation of S6K and 4EBP1: depletion of cellular ATP
# Method: as §2
# [4] = system: LEF (TSC2−/− epithelial) cells; test: Cell death / apoptosis of LEF cells (vector, TSC2, TSC2-3A); format: cell-based; details: vector and wild type TSC2 expressing LEF cells
# Method: FIGS. 16a-16f show TSC2 plays roles in protecting cells from glucose depletion-induced apoptosis. […] LEF cells stably expressing vector, TSC2, or TSC2-3A were cultured in 25 mM glucose (G+) or glucose free medium (G−) with or without 20 nM rapamycin. Pictures were taken at 72 hours in culture. Note that the TSC2 wild type expressing cells are morphologically smaller. […] LEF cells stably expressing vector, TSC2 or TSC2-3A were cultured in glucose free medium with or without 20 nM rapamycin for 48 hours. Western blots with anti-cleaved-caspase-3 and actin are shown. […] EEF cells were cultured in glucose free medium with or without 20 nM rapamycin for 96 hours. […] The EEF4 and EEF8 cells were cultured in glucose free medium with or without 20 nM rapamycin for 72 hours. Western blots with cleaved-caspase-3 and actin are shown. […] The MEFs were cultured in glucose free medium for 48 hours. […] MEFs were cultured in glucose free medium with or without 20 nM rapamycin for 16 hours. Western blots with cleaved-caspase-3 and actin are shown.
# Akt phosphorylation = test: Immunoblot of Akt phosphorylation in HEK293 cells; format: cell-based, human; details: AMPK inhibitor treatment
# Method: as §2
# TSC2 = test: TSC2/TSC1 phosphorylation in transfected HEK293 cells (mobility shift, 32P labelling, two-dimensional phosphopeptide mapping); format: cell-based, human; details: 10 μM, added 30 minutes before 2-DG, HEK293
# Method: as §2
# HEK293 cells were cotransfected with HA-tagged TSC2, Myc-tagged TSC1 and the indicated plasmids. Cells were phosphate- and serum-starved for 4 h before incubation with 0.25 mCi ml^−1 32P-orthophosphate (ICN) for 4 h.
# Cells were washed once with ice-cold PBS and lysed. HA-tagged TSC2 was immunoprecipitated, resolved by SDS-PAGE and transferred to a PVDF membrane. Phosphorylated TSC2 was visualized by autoradiography and phosphopeptide mapping was then performed. In brief, the phosphorylated TSC2 bands were excised, fixed in methanol and incubated in 500 μl of 0.5% polyvinylpyrrolidone-40 dissolved in 100 mM acetic acid for 30 min at 37° C. The sample were then digested with 20 μg of TPCK-treated trypsin (Sigma) at 37° C. in 75 mM ammonium bicarbonate buffer at pH 8.0 containing 5% acetonitrile. After digestion, samples were dried under vacuum and suspended in 10 μl of water. Samples were spotted onto a cellulose plate and first dimensional electrophoresis was performed using 1% ammonium bicarbonate buffer at pH 8.9. The plates were separated by chromatography in the second dimension in chromatography buffer (n-butanol:pyridine:acetic acid:water; 20:24:6:30). The plates were dried and phosphopeptides were visualized by autoradiography.
# [5] = target: GST-TSC2 fragment 2 (amino acids 1357-1765) (UniProt P49816)
# [6] = target: GST-TSC2 fragment 1 (amino acids 910-1112) (UniProt P49816)
# [7] = target: TSC2 fragment containing S1345 (UniProt P49816)
# TSC2-F2 fragment = TSC2-F2 fragment (UniProt P49816)
# S6K and 4EBP1 = details: Kimura et al.; Krause et al.; cited from earlier work
# [8] = system: eukaryotic elongation factor 2 (eEF2); details: Horman et al.; cited from earlier work
# AMPK = details: Corton et al.; cited from earlier work
molecule,measurement,setting,value
CO[C@H]1C[C@@H]2CC[C@@H](C)[C@@](O)(O2)C(=O)C(=O)N2CCCC[C@H]2C(=O)O[C@H]([C@H](C)C[C@@H]2CC[C@@H](O)[C@H](OC)C2)CC(=O)[C@H](C)/C=C(\C)[C@@H](O)[C@@H](OC)C(=O)[C@H](C)C[C@H](C)/C=C/C=C/C=C/1C [rapamycin],amount of albumin excreted relative to the starting point (16w; db/db),db/db mice [1],60%
same,increase in oxygen consumption versus db/db untreated mice,db/db mice [2],3.27 folds
same,phosphorylation of Thr 389 in S6K-dC104,S6K-dC104,not inhibited
CC(=O)c1c(O)c(C)c(O)c(Cc2c(O)c3c(c(C(=O)/C=C/c4ccccc4)c2O)OC(C)(C)C=C3)c1O [Rottlerin],S6K phosphorylation,EEF4 (TSC2+/+) cells,caused a decrease in S6K phosphorylation
same,phosphorylation of S6K and 4EBP1,[3],caused a dephosphorylation of S6K and 4EBP1
COc1cc([C@@H]2c3cc4c(cc3[C@@H](O[C@@H]3O[C@@H]5CO[C@@H](C)O[C@H]5[C@H](O)[C@H]3O)[C@H]3COC(=O)[C@H]23)OCO4)cc(OC)c1O [Etoposide],cell death,[4],caused cell death in both vector and wild type TSC2 expressing cells
c1cc(-c2cnn3cc(-c4ccc(OCCN5CCCCC5)cc4)cnc23)ccn1 [Compound C],Akt phosphorylation,Akt phosphorylation,had no effect
same,mobility of TSC2 / 2-DG induced mobility shift,TSC2,blocks the 2-DG induced mobility shift of TSC2
same,mobility of TSC2 / 2-DG induced mobility shift,TSC2; listed as compound C,increased the mobility of TSC2
same,effect on 2-DG induced dephosphorylation of S6K,"[3]; HEK 293, with 2-DG, listed as AMPK inhibitor",significantly reversed the inhibitory effect of 2-DG on S6K phosphorylation; also recorded: blocks the 2-DG induced dephosphorylation of S6K
same,S6K dephosphorylation induced by glucose deprivation,"[3]; glucose deprivation, listed as AMPK inhibitor",significantly blocked; also recorded: partially blocks
GST-Akt,in vitro phosphorylation by purified Akt,[5],"Wild-type Akt, but not the kinase-inactive Akt-KM mutant, efficiently phosphorylated both fragment 1 and fragment 2 of TSC2 in vitro"
same,in vitro phosphorylation by purified Akt,[6],"Wild-type Akt, but not the kinase-inactive Akt-KM mutant, efficiently phosphorylated both fragment 1 and fragment 2 of TSC2 in vitro"
immunoprecipitated AMPK (in vitro kinase assay),in vitro phosphorylation by immunoprecipitated AMPK,[7],"The TSC2 fragment was phosphorylated by immunoprecipitated AMPK, but not the kinase inactive AMPK mutant"
same,in vitro phosphorylation by immunoprecipitated AMPK,TSC2-F2 fragment,In vitro phosphorylation of the purified TSC2-F2 fragment by immunoprecipitated AMPK showed that AMPK specifically phosphorylates TSC2 on T1227
"NC(=O)c1ncn([C@@H]2O[C@H](COP(=O)(O)O)[C@@H](O)[C@H]2O)c1N [AICAR, 5-aminoimidazole-4-carboxyamide ribonucleotide]",S6K activity,S6K and 4EBP1,inhibit S6K activity
same,phosphorylation of eEF2,[8],increase phosphorylation
same,AMPK activation,AMPK,activate AMPK
OC[C@@H](O)[C@@H](O)[C@H](O)[C@H](O)CO [mannitol],phosphorylation of S6K on T389,[3]; 25 mM,had little effect
same,phosphorylation of S6K,[3]; 100 mM,significantly inhibited
N#CC(C#N)=NNc1ccc(OC(F)(F)F)cc1 [FCCP],S6K phosphorylation,EEF4 (TSC2+/+) cells,caused a decrease in S6K phosphorylation
same,phosphorylation of S6K and 4EBP1,[3],caused a dephosphorylation of S6K and 4EBP1
